Converted amounts (≈) assume the structure as drawn. The source made the active and inactive calls. The calls are words filed in the database; no cut-off is given here.
Assays:
Pseudomonas aeruginosa = test: Antibacterial activity against Pseudomonas aeruginosa MTCC 2453 incubated for 24 hrs by well diffusion method; type: functional; conditions: MTCC 2453, 24 h
Staphylococcus aureus [1] = test: Antibacterial activity against Staphylococcus aureus MLS16 MTCC 2940 incubated for 24 hrs by well diffusion method; type: functional; conditions: MLS16 MTCC 2940, 24 h
Micrococcus luteus [2] = test: Antibacterial activity against Micrococcus luteus MTCC 2470 incubated for 24 hrs by well diffusion method; type: functional; conditions: MTCC 2470, 24 h
Bacillus subtilis [3] = test: Antibacterial activity against Bacillus subtilis MTCC 121 incubated for 24 hrs by well diffusion method; type: functional; conditions: MTCC 121, 24 h
Raoultella planticola = test: Antibacterial activity against Klebsiella planticola MTCC 530 incubated for 24 hrs by well diffusion method; type: functional; conditions: MTCC 530, 24 h
Escherichia coli = test: Antibacterial activity against Escherichia coli MTCC 739 incubated for 24 hrs by well diffusion method; type: functional; conditions: MTCC 739, 24 h
Staphylococcus aureus [4] = test: Antibacterial activity against Staphylococcus aureus MTCC 96 incubated for 24 hrs by well diffusion method; type: functional; conditions: MTCC 96, 24 h
Micrococcus luteus [5] = test: Bactericidal activity against Micrococcus luteus MTCC 2470 incubated for 24 hrs by broth dilution method; type: functional; conditions: MTCC 2470, 24 h
Bacillus subtilis [6] = test: Bactericidal activity against Bacillus subtilis MTCC 121 incubated for 24 hrs by broth dilution method; type: functional; conditions: MTCC 121, 24 h
Staphylococcus aureus [7] = test: Bactericidal activity against Staphylococcus aureus MTCC 96 incubated for 24 hrs by broth dilution method; type: functional; conditions: MTCC 96, 24 h
Staphylococcus aureus [8] = test: Bactericidal activity against Staphylococcus aureus MLS16 MTCC 2940 incubated for 24 hrs by broth dilution method; type: functional; conditions: MLS16 MTCC 2940, 24 h
Staphylococcus aureus [9] = test: Induction of ROS accumulation in Staphylococcus aureus MTCC 96 biofilm at 4 ug/ml after 24 hrs by DCFH-DA staining-based fluorometric assay; type: functional, organism-based
Micrococcus luteus [10] = test: Antibiofilm activity against Micrococcus luteus MTCC 2470 incubated for 24 hrs by crystal violet staining-based assay; type: functional, organism-based; conditions: MTCC 2470, 24 h
Staphylococcus aureus [11] = test: Antibiofilm activity against Staphylococcus aureus MLS16 MTCC 2940 incubated for 24 hrs by crystal violet staining-based assay; type: functional, organism-based; conditions: MLS16 MTCC 2940, 24 h
Staphylococcus aureus [12] = test: Induction of ROS accumulation in Staphylococcus aureus MTCC 96 biofilm at 2 ug/ml after 24 hrs by DCFH-DA staining-based fluorometric assay; type: functional, organism-based
Staphylococcus aureus [13] = test: Antibiofilm activity against Staphylococcus aureus MTCC 96 incubated for 24 hrs by crystal violet staining-based assay; type: functional, organism-based; conditions: MTCC 96, 24 h
Bacillus subtilis [14] = test: Antibiofilm activity against Bacillus subtilis MTCC 121 incubated for 24 hrs by crystal violet staining-based assay; type: functional, organism-based; conditions: MTCC 121, 24 h

SMILES | MIC (Pseudomonas aeruginosa) [µg/mL] | MIC (Staphylococcus aureus [1]) [µg/mL] | MIC (Micrococcus luteus [2]) [µg/mL] | MIC (Bacillus subtilis [3]) [µg/mL] | MIC (Escherichia coli) [µg/mL] | MIC (Staphylococcus aureus [4]) [µg/mL] | IC50 (Staphylococcus aureus [13]) [µg/mL] | IC50 (Bacillus subtilis [14]) [µg/mL] | MIC (Raoultella planticola) [µg/mL] | MBC (Micrococcus luteus [5]) [µg/mL] | MBC (Bacillus subtilis [6]) [µg/mL] | MBC (Staphylococcus aureus [7]) [µg/mL] | MBC (Staphylococcus aureus [8]) [µg/mL] | Activity (Staphylococcus aureus [9]) | IC50 (Micrococcus luteus [10]) [µg/mL] | IC50 (Staphylococcus aureus [11]) [µg/mL] | Activity (Staphylococcus aureus [12])
O=[N+]([O-])c1ccc(C2=CSC3=NC4=C(CSc5ccccc54)C(c4ccc(Cl)cc4)N23)cc1 (configuration not stated) | > 125 | > 125 | 15.6 (≈ 31.8 µM) | 15.6 (≈ 31.8 µM) | > 125 | > 125 | – | – | > 125 | 31.2 (≈ 63.7 µM) | 31.2 (≈ 63.7 µM) | > 125 | > 125 | – | – | – | –
O=C(O)c1cn(C2CC2)c2cc(N3CCNCC3)c(F)cc2c1=O [CIPROFLOXACIN] | 0.9 (≈ 2.72 µM) | 0.9 (≈ 2.72 µM) | 0.9 (≈ 2.72 µM) | 0.9 (≈ 2.72 µM) | 0.9 (≈ 2.72 µM) | 0.9 (≈ 2.72 µM) | – | – | 0.9 (≈ 2.72 µM) | 1.9 (≈ 5.73 µM) | 0.9 (≈ 2.72 µM) | 1.9 (≈ 5.73 µM) | 0.9 (≈ 2.72 µM) | Active | 0.4 (≈ 1.21 µM) | 0.4 (≈ 1.21 µM) | Active
O=c1oc2ccccc2cc1C1=CSC2=NC3=C(CSc4ccccc43)C(c3ccccc3)N12 (configuration not stated) | > 125 | 31.2 (≈ 65.2 µM) | 31.2 (≈ 65.2 µM) | 31.2 (≈ 65.2 µM) | > 125 | 15.6 (≈ 32.6 µM) | – | – | > 125 | 31.2 (≈ 65.2 µM) | 62.5 (≈ 131 µM) | 31.2 (≈ 65.2 µM) | 62.5 (≈ 131 µM) | – | – | – | –
O=c1oc2ccccc2cc1C1=CSC2=NC3=C(CSc4ccccc43)C(c3cccc([N+](=O)[O-])c3)N12 (configuration not stated) | > 125 | > 125 | > 125 | > 125 | > 125 | > 125 | – | – | > 125 | – | – | – | – | – | – | – | –
O=c1oc2ccccc2cc1C1=CSC2=NC3=C(CSc4ccccc43)C(c3ccc(Cl)cc3)N12 (configuration not stated) | > 125 | > 125 | > 125 | > 125 | > 125 | > 125 | – | – | > 125 | – | – | – | – | – | – | – | –
O=[N+]([O-])c1cccc(C2C3=C(N=C4SC=C(c5ccc(Cl)cc5)N42)c2ccccc2SC3)c1 (configuration not stated) | > 125 | > 125 | > 125 | > 125 | > 125 | > 125 | – | – | > 125 | – | – | – | – | – | – | – | –
Cc1ccc(C2C3=C(N=C4SC=C(c5cc6ccccc6oc5=O)N42)c2ccccc2SC3)cc1 (configuration not stated) | > 125 | 31.2 (≈ 63.3 µM) | > 125 | > 125 | > 125 | 31.2 (≈ 63.3 µM) | – | – | > 125 | > 125 | > 125 | 62.5 (≈ 127 µM) | 31.2 (≈ 63.3 µM) | – | – | – | –
Clc1ccc(C2C3=C(N=C4SC=C(c5ccc(Br)cc5)N42)c2ccccc2SC3)cc1 (configuration not stated) | > 125 | > 125 | > 125 | 31.2 (≈ 59.6 µM) | > 125 | 31.2 (≈ 59.6 µM) | – | – | > 125 | > 125 | 31.2 (≈ 59.6 µM) | 62.5 (≈ 119 µM) | > 125 | – | – | – | –
C1=C(c2ccccc2)N2C(=NC3=C(CSc4ccccc43)C2c2ccccc2)S1 (configuration not stated) | > 125 | > 125 | > 125 | > 125 | > 125 | 31.2 (≈ 76 µM) | – | – | > 125 | > 125 | > 125 | 62.5 (≈ 152 µM) | > 125 | – | – | – | –
COc1ccc(C2=CSC3=NC4=C(CSc5ccccc54)C(c4ccc(Cl)cc4)N23)cc1 (configuration not stated) | > 125 | 15.6 (≈ 32.8 µM) | > 125 | 62.5 (≈ 132 µM) | > 125 | 7.8 (≈ 16.4 µM) | – | – | > 125 | > 125 | 62.5 (≈ 132 µM) | 15.6 (≈ 32.8 µM) | 31.2 (≈ 65.7 µM) | – | – | – | –

Continued, in another order:

MIC (Pseudomonas aeruginosa) [µg/mL] | MIC (Staphylococcus aureus [1]) [µg/mL] | MIC (Micrococcus luteus [2]) [µg/mL] | MIC (Bacillus subtilis [3]) [µg/mL] | MIC (Escherichia coli) [µg/mL] | MIC (Staphylococcus aureus [4]) [µg/mL] | IC50 (Staphylococcus aureus [13]) [µg/mL] | IC50 (Bacillus subtilis [14]) [µg/mL] | SMILES | MIC (Raoultella planticola) [µg/mL] | MBC (Micrococcus luteus [5]) [µg/mL] | MBC (Bacillus subtilis [6]) [µg/mL] | MBC (Staphylococcus aureus [7]) [µg/mL] | MBC (Staphylococcus aureus [8]) [µg/mL] | Activity (Staphylococcus aureus [9]) | IC50 (Micrococcus luteus [10]) [µg/mL] | IC50 (Staphylococcus aureus [11]) [µg/mL] | Activity (Staphylococcus aureus [12])
> 125 | > 125 | > 125 | > 125 | > 125 | > 125 | – | – | Clc1ccc(C2=CSC3=NC4=C(CSc5ccccc54)C(c4ccccc4)N23)cc1 (configuration not stated) | > 125 | – | – | – | – | – | – | – | –
> 125 | > 125 | > 125 | > 125 | > 125 | > 125 | – | – | Brc1ccc(C2=CSC3=NC4=C(CSc5ccccc54)C(c4ccccc4)N23)cc1 (configuration not stated) | > 125 | – | – | – | – | – | – | – | –
> 125 | > 125 | > 125 | > 125 | > 125 | > 125 | – | – | Cc1ccc(C2C3=C(N=C4SC=C(c5ccc(Br)cc5)N42)c2ccccc2SC3)cc1 (configuration not stated) | > 125 | – | – | – | – | – | – | – | –
> 125 | 15.6 (≈ 35.1 µM) | > 125 | > 125 | > 125 | > 125 | – | – | Clc1ccc(C2C3=C(N=C4SC=C(c5ccccc5)N42)c2ccccc2SC3)cc1 (configuration not stated) | > 125 | – | – | – | – | – | – | – | –
> 125 | 3.9 (≈ 9.19 µM) | 7.8 (≈ 18.4 µM) | 3.9 (≈ 9.19 µM) | > 125 | 3.9 (≈ 9.19 µM) | 2.1 (≈ 4.95 µM) | 1.9 (≈ 4.47 µM) | Cc1ccc(C2=CSC3=NC4=C(CSc5ccccc54)C(c4ccccc4)N23)cc1 (configuration not stated) | > 125 | 15.6 (≈ 36.7 µM) | 3.9 (≈ 9.19 µM) | 7.8 (≈ 18.4 µM) | 7.8 (≈ 18.4 µM) | Active | 5.3 (≈ 12.5 µM) | 2.4 (≈ 5.65 µM) | Active
